Test results from the supplement of paper PMC6045584.
± gives the standard deviation of the averaged measurements.

Experiments:
[1] = compound: CC(=O)NCC(=O)N1[C@@H]2CC[C@H]1c1ccc(Nc3ncc(C(F)(F)F)c(NC4CCC4)n3)cc12; assay: surviving fraction relative to DMSO-only wells; higher = less growth inhibition; details: exposure time: 5 days
Method in brief: (§1)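 Tumour cell lines were seeded in log phase at 250–500 cells per well into 384-well plates. Starting 24 hours later, inhibitors were present continuously for five days at 0.5, 1, 5, 10, 50, 100, 500 and 1000 nM. Surviving fraction, from CellTiter-Glo luminescence, is normalised to the median of DMSO-only wells. Three screens per line were required, with replicate Pearson r >0.7 and median Z' >0.3 for a line to be kept.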

[2] = compound: T1, CC(=O)O[C@H]1C(=O)[C@@]2(C)[C@H]([C@H](OC(=O)c3ccccc3)[C@]3(O)C[C@H](OC(=O)[C@H](O)[C@@H](NC(=O)c4ccccc4)c4ccccc4)C(C)=C1C3(C)C)[C@]1(OC(C)=O)CO[C@@H]1C[C@@H]2O [PACLITAXEL]; assay: as above; details: exposure time: 5 days
Method in brief: as §1

[3] = compound: CC(=O)c1c(C)c2cnc(Nc3ccc(N4CCNCC4)cn3)nc2n(C2CCCC2)c1=O; assay: as above; details: exposure time: 5 days
Method in brief: as §1

[4] = compound: T2, CC[C@@]1(O)C(=O)OCc2c1cc1n(c2=O)Cc2cc3ccccc3nc2-1 [CAMPTOTHECIN]; assay: as above; details: exposure time: 5 days
Method in brief: as §1

[5] = compound: T3, COCC[n+]1c2c(n(Cc3cnccn3)c1C)C(=O)c1ccccc1C2=O [YM155]; assay: as above; details: exposure time: 5 days
Method in brief: as §1

[6] = compound: COc1cc2ncnc(Nc3ccc(F)c(Cl)c3)c2cc1OCCCN1CCOCC1 [GEFITINIB]; assay: as above; details: exposure time: 5 days
Method in brief: as §1

[7] = compound: T4, C[C@]1(O)C[C@@H](c2nc(-c3ccc4ccc(-c5ccccc5)nc4c3)c3c(N)nccn32)C1 [OSI-906]; assay: as above; details: exposure time: 5 days
Method in brief: as §1

[8] = compound: T5, Cc1ccc(-c2cc(C(F)(F)F)nn2-c2ccc(S(N)(=O)=O)cc2)cc1 [CELECOXIB]; assay: as above; details: exposure time: 5 days
Method in brief: as §1

[9] = compound: T6, O=C(O)C1(C(=O)O)CCC1.[NH2-].[NH2-].[Pt+2] [CARBOPLATIN]; assay: as above; details: exposure time: 5 days
Method in brief: as §1

[10] = compound: CC(=O)NCC(=O)N1[C@@H]2CC[C@H]1c1ccc(Nc3ncc(C(F)(F)F)c(NC4CCC4)n3)cc12; assay: area under dose-response curve of surviving fraction (unscaled, Aref=0) (surviving fraction x log10(nM)); higher = more resistant; details: exposure time: 5 days; dose range 0.5-1000 nM
Method in brief: (§2)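 Tumour cell lines in 384-well plates were exposed to eight inhibitor concentrations, from 0.5 to 1000 nM, for five days, and viability was read by CellTiter-Glo luminescence in three screens per line. Signals were normalised to DMSO-only wells, and 3-parameter logistic regression in the drc R package fitted dose-response survival curves to the surviving fractions. Area under the curve is given as the unscaled activity area. That area is taken over log10 dose with Aref = 0.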

[11] = compound: T1, PACLITAXEL; assay: as above; details: exposure time: 5 days; dose range 0.5-1000 nM
Method in brief: as §2

[12] = compound: CC(=O)c1c(C)c2cnc(Nc3ccc(N4CCNCC4)cn3)nc2n(C2CCCC2)c1=O; assay: as above; details: exposure time: 5 days; dose range 0.5-1000 nM
Method in brief: as §2

[13] = compound: T2, CAMPTOTHECIN; assay: as above; details: exposure time: 5 days; dose range 0.5-1000 nM
Method in brief: as §2

[14] = compound: T3, YM155; assay: as above; details: exposure time: 5 days; dose range 0.5-1000 nM
Method in brief: as §2

[15] = compound: T4, OSI-906; assay: as above; details: exposure time: 5 days; dose range 0.5-1000 nM
Method in brief: as §2

[16] = compound: T5, CELECOXIB; assay: as above; details: exposure time: 5 days; dose range 0.5-1000 nM
Method in brief: as §2

[17] = compound: T6, CARBOPLATIN; assay: as above; details: exposure time: 5 days; dose range 0.5-1000 nM
Method in brief: as §2

Q: With SG31 HEADNECK as the test system, how does the surviving fraction ([1]; 0.5 nM) read?
A: 0.909 ± 0.13

Q: And the surviving fraction ([1]; 1 nM)?
A: 1.05 ± 0.18

Q: What about the surviving fraction ([1]; 5 nM) of the same test system?
A: 1.03 ± 0.26

Q: And the surviving fraction ([1]; 10 nM)?
A: 0.808 ± 0.041

Q: What about the surviving fraction ([1]; 50 nM) of the same test system?
A: 0.913 ± 0.052

Q: And the surviving fraction ([1]; 100 nM)?
A: 0.705 ± 0.069

Q: And the surviving fraction ([1]; 500 nM)?
A: 0.749 ± 0.076

Q: What about the surviving fraction ([1]; 1000 nM) of the same test system?
A: 0.717 ± 0.1

Q: What about the surviving fraction ([2]; 0.5 nM) of the same test system?
A: 0.976 ± 0.12

Q: What about the surviving fraction ([2]; 1 nM) of the same test system?
A: 0.887 ± 0.06

Q: What about the surviving fraction ([2]; 5 nM) of the same test system?
A: 0.455 ± 0.029

Q: And the surviving fraction ([2]; 10 nM)?
A: 0.381 ± 0.036

Q: And the surviving fraction ([2]; 50 nM)?
A: 0.271 ± 0.037

Q: What about the surviving fraction ([2]; 100 nM) of the same test system?
A: 0.252 ± 0.033

Q: What about the surviving fraction ([2]; 500 nM) of the same test system?
A: 0.267 ± 0.045

Q: And the surviving fraction ([2]; 1000 nM)?
A: 0.273 ± 0.028

Q: What about the surviving fraction ([3]; 0.5 nM) of the same test system?
A: 1.22 ± 0.17

Q: And the surviving fraction ([3]; 1 nM)?
A: 1.08 ± 0.19

Q: And the surviving fraction ([3]; 5 nM)?
A: 0.988 ± 0.21

Q: What about the surviving fraction ([3]; 10 nM) of the same test system?
A: 0.911 ± 0.13

Q: And the surviving fraction ([3]; 50 nM)?
A: 0.976 ± 0.071

Q: And the surviving fraction ([3]; 100 nM)?
A: 0.977 ± 0.24

Q: And the surviving fraction ([3]; 500 nM)?
A: 1.08 ± 0.13

Q: What about the surviving fraction ([3]; 1000 nM) of the same test system?
A: 1.14 ± 0.19

Q: What about the surviving fraction ([4]; 0.5 nM) of the same test system?
A: 0.444 ± 0.03

Q: What about the surviving fraction ([4]; 1 nM) of the same test system?
A: 0.911 ± 0.064

Q: What about the surviving fraction ([4]; 5 nM) of the same test system?
A: 0.607 ± 0.074

Q: And the surviving fraction ([4]; 10 nM)?
A: 0.715 ± 0.1

Q: What about the surviving fraction ([4]; 50 nM) of the same test system?
A: 0.376 ± 0.021

Q: What about the surviving fraction ([4]; 100 nM) of the same test system?
A: 0.37 ± 0.049

Q: And the surviving fraction ([4]; 500 nM)?
A: 0.189 ± 0.017

Q: And the surviving fraction ([4]; 1000 nM)?
A: 0.133 ± 0.018

Q: And the surviving fraction ([5]; 0.5 nM)?
A: 1.01 ± 0.095

Q: What about the surviving fraction ([5]; 1 nM) of the same test system?
A: 1.07 ± 0.074

Q: And the surviving fraction ([5]; 5 nM)?
A: 0.883 ± 0.062

Q: What about the surviving fraction ([5]; 10 nM) of the same test system?
A: 0.893 ± 0.11

Q: And the surviving fraction ([5]; 50 nM)?
A: 0.391 ± 0.13

Q: And the surviving fraction ([5]; 100 nM)?
A: 0.291 ± 0.15

Q: And the surviving fraction ([5]; 500 nM)?
A: 0.0993 ± 0.037

Q: What about the surviving fraction ([5]; 1000 nM) of the same test system?
A: 0.104 ± 0.064

Q: What about the surviving fraction ([6]; 0.5 nM) of the same test system?
A: 1.14 ± 0.13

Q: And the surviving fraction ([6]; 1 nM)?
A: 1.09 ± 0.18

Q: And the surviving fraction ([6]; 5 nM)?
A: 1.1 ± 0.28

Q: And the surviving fraction ([6]; 10 nM)?
A: 1.11 ± 0.24

Q: And the surviving fraction ([6]; 50 nM)?
A: 0.855 ± 0.24

Q: What about the surviving fraction ([6]; 100 nM) of the same test system?
A: 0.845 ± 0.23

Q: And the surviving fraction ([6]; 500 nM)?
A: 0.732 ± 0.2

Q: And the surviving fraction ([6]; 1000 nM)?
A: 0.54 ± 0.11

Q: What about the surviving fraction ([7]; 0.5 nM) of the same test system?
A: 0.867 ± 0.15

Q: What about the surviving fraction ([7]; 1 nM) of the same test system?
A: 0.994 ± 0.057

Q: And the surviving fraction ([7]; 5 nM)?
A: 0.84 ± 0.045

Q: What about the surviving fraction ([7]; 10 nM) of the same test system?
A: 0.985 ± 0.056

Q: And the surviving fraction ([7]; 50 nM)?
A: 1 ± 0.22

Q: What about the surviving fraction ([7]; 100 nM) of the same test system?
A: 0.833 ± 0.1

Q: What about the surviving fraction ([7]; 500 nM) of the same test system?
A: 0.615 ± 0.042

Q: And the surviving fraction ([7]; 1000 nM)?
A: 0.493 ± 0.042

Q: And the surviving fraction ([8]; 0.5 nM)?
A: 1.27 ± 0.19

Q: What about the surviving fraction ([8]; 1 nM) of the same test system?
A: 1.4 ± 0.5

Q: What about the surviving fraction ([8]; 5 nM) of the same test system?
A: 1.11 ± 0.21

Q: What about the surviving fraction ([8]; 10 nM) of the same test system?
A: 1.11 ± 0.25

Q: And the surviving fraction ([8]; 50 nM)?
A: 1.15 ± 0.17

Q: And the surviving fraction ([8]; 100 nM)?
A: 1.1 ± 0.063

Q: And the surviving fraction ([8]; 500 nM)?
A: 1.63 ± 0.2

Q: What about the surviving fraction ([8]; 1000 nM) of the same test system?
A: 1.52 ± 0.15

Q: And the surviving fraction ([9]; 0.5 nM)?
A: 1.15 ± 0.14

Q: And the surviving fraction ([9]; 1 nM)?
A: 1.21 ± 0.11

Q: What about the surviving fraction ([9]; 5 nM) of the same test system?
A: 0.963 ± 0.12

Q: What about the surviving fraction ([9]; 10 nM) of the same test system?
A: 1.12 ± 0.24

Q: And the surviving fraction ([9]; 50 nM)?
A: 1.16 ± 0.1

Q: What about the surviving fraction ([9]; 100 nM) of the same test system?
A: 1.06 ± 0.19

Q: What about the surviving fraction ([9]; 500 nM) of the same test system?
A: 1.17 ± 0.083

Q: And the surviving fraction ([9]; 1000 nM)?
A: 1.21 ± 0.14

Q: What about the “area under dose-response curve” value [10] of the same test system?
A: 2.85

Q: What about the “area under dose-response curve” value [11] of the same test system?
A: 1.44

Q: And the “area under dose-response curve” value [12]?
A: 3.36

Q: And the “area under dose-response curve” value [13]?
A: 1.58

Q: What about the “area under dose-response curve” value [14] of the same test system?
A: 1.96

Q: And the “area under dose-response curve” value [15]?
A: 2.94

Q: What about the “area under dose-response curve” value [16] of the same test system?
A: 4.19

Q: What about the “area under dose-response curve” value [17] of the same test system?
A: 3.73
